Test results: article PMC9120017, “Inhibition mechanism of the chloride channel TMEM16A by the pore blocker 1PBC” (Nature Communications, 2022)
Read-outs that look alike come from different tables or passages of the source.

Target: T1, mouse TMEM16A mutant S517A (Mus musculus, UniProt Q8BHY3, S517A)
T1 construct: expressed in transfected cells; host or cells: HEK293T
T1 sequence (Q8BHY3 1-960 S517A): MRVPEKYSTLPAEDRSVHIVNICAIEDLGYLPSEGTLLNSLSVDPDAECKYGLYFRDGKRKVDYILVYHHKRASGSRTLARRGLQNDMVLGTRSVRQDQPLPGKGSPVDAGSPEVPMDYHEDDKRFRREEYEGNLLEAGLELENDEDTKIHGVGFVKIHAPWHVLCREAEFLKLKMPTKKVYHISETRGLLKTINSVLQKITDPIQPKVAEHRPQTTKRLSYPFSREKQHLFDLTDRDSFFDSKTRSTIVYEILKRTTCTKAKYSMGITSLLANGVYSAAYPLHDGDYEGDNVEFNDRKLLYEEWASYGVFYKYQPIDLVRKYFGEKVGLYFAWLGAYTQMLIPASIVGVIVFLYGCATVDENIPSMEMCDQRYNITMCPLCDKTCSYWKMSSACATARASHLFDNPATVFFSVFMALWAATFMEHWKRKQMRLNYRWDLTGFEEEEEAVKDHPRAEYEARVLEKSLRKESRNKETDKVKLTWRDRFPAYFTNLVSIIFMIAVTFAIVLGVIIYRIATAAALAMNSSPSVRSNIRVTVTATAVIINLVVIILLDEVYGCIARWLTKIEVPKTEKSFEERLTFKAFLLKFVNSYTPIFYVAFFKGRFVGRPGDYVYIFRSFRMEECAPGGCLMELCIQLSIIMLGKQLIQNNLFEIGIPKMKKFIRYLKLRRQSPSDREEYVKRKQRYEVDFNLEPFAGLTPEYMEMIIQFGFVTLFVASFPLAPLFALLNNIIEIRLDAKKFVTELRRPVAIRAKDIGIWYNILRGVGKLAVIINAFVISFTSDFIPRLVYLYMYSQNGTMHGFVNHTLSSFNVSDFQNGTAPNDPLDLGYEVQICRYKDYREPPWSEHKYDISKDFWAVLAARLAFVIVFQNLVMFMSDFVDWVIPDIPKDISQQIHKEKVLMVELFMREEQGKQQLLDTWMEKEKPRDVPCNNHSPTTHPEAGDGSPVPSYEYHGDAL
Assay: Inside-out patch recording of 1PBC block, mutant S517A
Format: cell-based
Settings: for remaining activity at 1 µM: 1PBC 1; for remaining activity at 1 µM / remaining activity at 3 µM / remaining activity at 10 µM / remaining activity at 30 µM / remaining activity at 100 µM: read-out: fraction of unblocked current; for remaining activity at 3 µM: 1PBC 3; for remaining activity at 10 µM: 1PBC 10; for remaining activity at 30 µM: 1PBC 30; for remaining activity at 100 µM: 1PBC 100
Description: HEK293T cells (ATCC CRL-1573) were maintained in Dulbecco’s modified Eagle’s medium (DMEM; Sigma-Aldrich) supplemented with 10 U ml^−1 penicillin, 0.1 mg ml^−1 streptomycin (Sigma-Aldrich), 2 mM L-glutamine (Sigma-Aldrich), and 10% FBS (Sigma-Aldrich) in a humidified atmosphere containing 5% CO2 at 37 °C. HEK293S GnTI^− cells (ATCC CRL-3022) were maintained in HyClone HyCell TransFx-H medium (GE Healthcare) supplemented with 10 U ml^−1 penicillin, 0.1 mg ml^−1 streptomycin, 4 mM L-glutamine, 0.15% poloxamer 188 (Sigma-Aldrich), and 1% FBS in an atmosphere containing 5% CO2 at 185 rpm at 37 °C. The ac splice variant of mouse TMEM16A (UniProt ID: Q8BHY3), mouse TMEM16B (UniProt ID: Q8CFW1), or mouse TMEM16F (UniProt ID: Q6P9J9) bearing a 3C cleavage site, a Venus YFP, a Myc tag, and a Streptavidin-binding peptide (SBP) downstream of the open reading frame in a modified pcDNA3.1 vector (Invitrogen) were used as described previously[21],[31]. Mutations were introduced using a modified QuikChange method[58] and were verified by sequencing.
HEK293T cells were transfected with 3–4 μg DNA per 6 cm Petri dish using the calcium phosphate co-precipitation method and were used within 24–96 h after transfection. Recordings were performed on inside-out patches excised from HEK293T cells expressing the construct of interest. Patch pipettes were pulled from borosilicate glass capillaries (O.D. 1.5 mm, I.D. 0.86 mm, Sutter Instrument) and were fire-polished with a microforge (Narishige) before use. Pipette resistance was typically 3–8 MΩ when filled with the recording solutions detailed below. Seal resistance was typically 4 GΩ or higher. Voltage-clamp recordings were made using Axopatch 200B, Digidata 1550, and Clampex 10.7 (Molecular Devices). Analog signals were filtered with the in-built 4-pole Bessel filter at 10 kHz and were digitized at 20 kHz. Solution exchange was achieved using a gravity-fed system through a theta glass pipette mounted on an ultra-fast piezo-driven stepper (Siskiyou). […] All recordings were performed at 20 °C.
A symmetrical ionic condition was used throughout. Stock solution with Ca^2+-EGTA contained 150 mM NaCl, 5.99 mM Ca(OH)2, 5 mM EGTA, and 10 mM HEPES at pH 7.40. Stock solution with EGTA contained 150 mM NaCl, 5 mM EGTA, and 10 mM HEPES at pH 7.40. Free Ca^2+ concentrations were adjusted by mixing the stock solutions at the required ratios calculated using the WEBMAXC program (http://web.stanford.edu/~cpatton/webmaxcS.htm). Patch pipettes were filled with the stock solution with Ca^2+-EGTA, which has a free Ca^2+ concentration of 1 mM. 1PBC (ChemBridge) stock was reconstituted in anhydrous DMSO (Sigma-Aldrich) at 100 mM and stored at −20 °C. Working solutions with 1PBC were prepared by serial dilution. Unless otherwise stated, experiments were performed at a saturating Ca^2+ concentration as shown in Supplementary Table 1 and the primary data were corrected for current rundown as described previously[21],[25].
Concentration-response relations, obtained from the ratio of the I-V plots before and after the application of the blocker, were fitted to the Hill equation,1 I/Imax=1/1+IC50/[blocker]^h where I/Imax is the normalized current responses, IC50 defines the concentration at which inhibition is at its half-maximum, and h is the Hill coefficient.

- IC50 (0 mV, 2 µM Ca2+): 4.87 µM
- remaining activity at 1 µM (0 mV): 80.6%
- remaining activity at 1 µM (20 mV): 76.4%
- remaining activity at 1 µM (40 mV): 72.2%
- remaining activity at 1 µM (60 mV): 68.1%
- remaining activity at 1 µM (80 mV): 65.8%
- remaining activity at 1 µM (100 mV): 66.4%
- remaining activity at 1 µM (120 mV): 68.4%
- remaining activity at 1 µM (140 mV): 72%
- remaining activity at 1 µM (-20 mV): 84.8%
- remaining activity at 1 µM (-40 mV): 89.1%
- remaining activity at 1 µM (-60 mV): 92.3%
- remaining activity at 1 µM (-80 mV): 93.4%
- remaining activity at 1 µM (-100 mV): 95%
- remaining activity at 1 µM (-120 mV): 95.3%
- remaining activity at 1 µM (-140 mV): 96.6%
- remaining activity at 3 µM (0 mV): 62.1%
- remaining activity at 3 µM (20 mV): 56.5%
- remaining activity at 3 µM (40 mV): 50.9%
- remaining activity at 3 µM (60 mV): 46.8%
- remaining activity at 3 µM (80 mV): 43.5%
- remaining activity at 3 µM (100 mV): 42.4%
- remaining activity at 3 µM (120 mV): 44.1%
- remaining activity at 3 µM (140 mV): 49.1%
- remaining activity at 3 µM (-20 mV): 67.7%
- remaining activity at 3 µM (-40 mV): 73.3%
- remaining activity at 3 µM (-60 mV): 77.2%
- remaining activity at 3 µM (-80 mV): 82.9%
- remaining activity at 3 µM (-100 mV): 86.4%
- remaining activity at 3 µM (-120 mV): 88.8%
- remaining activity at 3 µM (-140 mV): 90.8%
- remaining activity at 10 µM (0 mV): 33.3%
- remaining activity at 10 µM (20 mV): 28.2%
- remaining activity at 10 µM (40 mV): 24.2%
- remaining activity at 10 µM (60 mV): 21.4%
- remaining activity at 10 µM (80 mV): 19.4%
- remaining activity at 10 µM (100 mV): 17.8%
- remaining activity at 10 µM (120 mV): 18.2%
- remaining activity at 10 µM (140 mV): 20.6%
- remaining activity at 10 µM (-20 mV): 38.5%
- remaining activity at 10 µM (-40 mV): 44.6%
- remaining activity at 10 µM (-60 mV): 50%
- remaining activity at 10 µM (-80 mV): 54.7%
- remaining activity at 10 µM (-100 mV): 59.2%
- remaining activity at 10 µM (-120 mV): 64.2%
- remaining activity at 10 µM (-140 mV): 67.7%
- remaining activity at 30 µM (0 mV): 14.7%
- remaining activity at 30 µM (20 mV): 12%
- remaining activity at 30 µM (40 mV): 10.1%
- remaining activity at 30 µM (60 mV): 9.12%
- remaining activity at 30 µM (80 mV): 8.68%
- remaining activity at 30 µM (100 mV): 8.48%
- remaining activity at 30 µM (120 mV): 8.95%
- remaining activity at 30 µM (140 mV): 10.1%
- remaining activity at 30 µM (-20 mV): 17.4%
- remaining activity at 30 µM (-40 mV): 20.4%
- remaining activity at 30 µM (-60 mV): 25.6%
- remaining activity at 30 µM (-80 mV): 29.2%
- remaining activity at 30 µM (-100 mV): 33.1%
- remaining activity at 30 µM (-120 mV): 36.2%
- remaining activity at 30 µM (-140 mV): 39.2%
- remaining activity at 100 µM (0 mV): 6.16%
- remaining activity at 100 µM (20 mV): 4.78%
- remaining activity at 100 µM (40 mV): 4.43%
- remaining activity at 100 µM (60 mV): 4.02%
- remaining activity at 100 µM (80 mV): 3.86%
- remaining activity at 100 µM (100 mV): 3.89%
- remaining activity at 100 µM (120 mV): 3.95%
- remaining activity at 100 µM (140 mV): 4.21%
- remaining activity at 100 µM (-20 mV): 7.53%
- remaining activity at 100 µM (-40 mV): 8.84%
- remaining activity at 100 µM (-60 mV): 10.3%
- remaining activity at 100 µM (-80 mV): 12.6%
- remaining activity at 100 µM (-100 mV): 14.7%
- remaining activity at 100 µM (-120 mV): 17.1%
- remaining activity at 100 µM (-140 mV): 19.8%
- IC50 (20 mV, 2 µM Ca2+): 3.78 µM
- IC50 (40 mV, 2 µM Ca2+): 3.01 µM
- IC50 (60 mV, 2 µM Ca2+): 2.51 µM
- log-fold IC50 (change of mutant vs WT) (80 mV): 0.0426
- IC50 (80 mV, 2 µM Ca2+): 2.2 µM
- IC50 (100 mV, 2 µM Ca2+): 2.14 µM
- IC50 (120 mV, 2 µM Ca2+): 2.29 µM
- IC50 (140 mV, 2 µM Ca2+): 2.76 µM
- IC50 (-20 mV, 2 µM Ca2+): 6.24 µM
- IC50 (-40 mV, 2 µM Ca2+): 8.08 µM
- IC50 (-60 mV, 2 µM Ca2+): 10.3 µM
- IC50 (-80 mV, 2 µM Ca2+): 12.8 µM
- IC50 (-100 mV, 2 µM Ca2+): 15.5 µM
- IC50 (-120 mV, 2 µM Ca2+): 18.4 µM
- IC50 (-140 mV, 2 µM Ca2+): 21.4 µM
- IC50 (S517A, V 0 mV): 4.87 µM
- IC50 (S517A, V 20 mV): 3.78 µM
- IC50 (S517A, V 40 mV): 3.01 µM
- IC50 (S517A, V 60 mV): 2.51 µM
- IC50 (S517A, V 80 mV): 2.2 µM
- IC50 (S517A, V 100 mV): 2.14 µM
- IC50 (S517A, V 120 mV): 2.29 µM
- IC50 (S517A, V 140 mV): 2.76 µM
- IC50 (S517A, V -20 mV): 6.24 µM
- IC50 (S517A, V -40 mV): 8.08 µM
- IC50 (S517A, V -60 mV): 10.3 µM
- IC50 (S517A, V -80 mV): 12.8 µM
- IC50 (S517A, V -100 mV): 15.5 µM
- IC50 (S517A, V -120 mV): 18.4 µM
- IC50 (S517A, V -140 mV): 21.4 µM
Compound: N#Cc1c(C(F)(F)F)cc(O)n2c1nc1ccccc12 [1PBC]
